The values below are quoted from earlier work in patent publication US20240245685A1, “PHOSPHODIESTERASE-5 INHIBITOR COMBINATIONS, METHODS OF MAKING, AND METHODS OF USE THEREOF” (VK Research Associates Inc, priority 2020, published 2024).

Read-outs that look alike come from different tables or passages of the source.

For series [1] the following is noted: for median time to maximum concentration (t max): oral administration.
Assay in series [2]: not given
The source holds these as a separate data set.

For series [3] the following is noted: oral tadalafil therapy.

On to `COc1ccc(CN=c2[nH]c(N3CCC[C@H]3CO)ncc2C(=O)NCc2ncccn2)cc1Cl` [avanafil], for which the “absorption profile when administered with a high-fat meal” value in series [1] is “not found”.
`CCCc1nc(C)c2c(=O)[nH]c(-c3cc(S(=O)(=O)N4CCN(CC)CC4)ccc3OCC)nn12` [vardenafil]: the “median time to maximum concentration (t max)” value in series [1] was 1 h.
As to `CN1CC(=O)N2[C@H](c3ccc4c(c3)OCO4)c3[nH]c4ccccc4c3C[C@@H]2C1=O` [tadalafil], in series [1], the “absorption profile when administered with a high-fat meal” value is listed as “not found”. Also, under “tadalafil 5 mg”, the Dyspepsia incidence is 4% and the Headache incidence is on record as 11%. Moreover, under “tadalafil 10 mg”, the Dyspepsia incidence is recorded as 8% and the Headache incidence is 11%. Further, under “tadalafil 20 mg”, the Dyspepsia incidence is 10% and the Headache incidence is recorded as 15%. Further, in series [2] (maximum doses), the “Dyspepsia Duration” value was 15.5 h, the “Dyspepsia Mean Duration” value is 11.2 h, the “Headache Duration” value is 24.3 h and the “Headache Mean Duration” value is 17.0 h. In addition, the “duration of side effects versus sildenafil” value in series [2] (patients taking tadalafil versus sildenafil) is on record as “more prolonged”. The “frequency of headache and dyspepsia versus sildenafil” value in series [2] (tadalafil versus sildenafil) is “more common”. In series [3], the “duration of delayed onset side effects, e.g. gastritis and back pain” value is listed as “up to 3 hours”.
`CCCc1nn(C)c2c(=O)[nH]c(-c3cc(S(=O)(=O)N4CCN(C)CC4)ccc3OCC)nc12` [sildenafil]: in series [1], the “median time to maximum concentration (t max)” value is 1 h.
